#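 48-hour exposure; five concentrations; linearly interpolated endpoints. The concentration for 50% growth inhibition is given as GI50. At the TGI there is no net growth.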
# Columns and labels:
# Test in all cases: NCI-60 cell line screen, 48 h
# 786-0 renal = tested on: 786-0 renal
# A498 renal = tested on: A498 renal
# A549 NSCLC = tested on: A549 NSCLC
# ACHN renal = tested on: ACHN renal
# BT-549 breast = tested on: BT-549 breast
# CAKI-1 renal = tested on: CAKI-1 renal
# CCRF-CEM leukemia = tested on: CCRF-CEM leukemia
# COLO 205 colon = tested on: COLO 205 colon
# DU-145 prostate = tested on: DU-145 prostate
# EKVX NSCLC = tested on: EKVX NSCLC
# HCC-2998 colon = tested on: HCC-2998 colon
# HCT-116 colon = tested on: HCT-116 colon
# HCT-15 colon = tested on: HCT-15 colon
# HL-60(TB) leukemia = tested on: HL-60(TB) leukemia
# HOP-62 NSCLC = tested on: HOP-62 NSCLC
# HOP-92 NSCLC = tested on: HOP-92 NSCLC
# HS 578T breast = tested on: HS 578T breast
# HT29 colon = tested on: HT29 colon
# IGROV1 ovarian = tested on: IGROV1 ovarian
# K-562 leukemia = tested on: K-562 leukemia
# KM12 colon = tested on: KM12 colon
# LOX IMVI melanoma = tested on: LOX IMVI melanoma
# M14 melanoma = tested on: M14 melanoma
# MALME-3M melanoma = tested on: MALME-3M melanoma
# MCF7 breast = tested on: MCF7 breast
# MDA-MB-231 breast = tested on: MDA-MB-231 breast
# MDA-MB-435 = tested on: MDA-MB-435
# MOLT-4 leukemia = tested on: MOLT-4 leukemia
# NCI-H226 lung = tested on: NCI-H226 lung
# NCI-H460 lung = tested on: NCI-H460 lung
# NCI-H522 lung = tested on: NCI-H522 lung
# NCI/ADR-RES ovarian = tested on: NCI/ADR-RES ovarian
# OVCAR-3 ovarian = tested on: OVCAR-3 ovarian
# OVCAR-4 ovarian = tested on: OVCAR-4 ovarian
# OVCAR-5 ovarian = tested on: OVCAR-5 ovarian
# OVCAR-8 ovarian = tested on: OVCAR-8 ovarian
# PC-3 prostate = tested on: PC-3 prostate
# RPMI-8226 leukemia = tested on: RPMI-8226 leukemia
# RXF 393 renal = tested on: RXF 393 renal
# SF-268 CNS = tested on: SF-268 CNS
# SF-295 CNS = tested on: SF-295 CNS
# SF-539 CNS = tested on: SF-539 CNS
# SK-MEL-2 melanoma = tested on: SK-MEL-2 melanoma
# SK-MEL-28 melanoma = tested on: SK-MEL-28 melanoma
# SK-MEL-5 melanoma = tested on: SK-MEL-5 melanoma
# SK-OV-3 ovarian = tested on: SK-OV-3 ovarian
# SN12C renal = tested on: SN12C renal
# SNB-19 CNS = tested on: SNB-19 CNS
# SNB-75 CNS = tested on: SNB-75 CNS
# SR leukemia = tested on: SR leukemia
# SW-620 colon = tested on: SW-620 colon
# T-47D breast = tested on: T-47D breast
# TK-10 renal = tested on: TK-10 renal
# U251 CNS = tested on: U251 CNS
# UACC-257 melanoma = tested on: UACC-257 melanoma
# UACC-62 melanoma = tested on: UACC-62 melanoma
# UO-31 renal = tested on: UO-31 renal
smiles,measurement,setting,value
C#C[C@]1(O)CC[C@H]2[C@@H]3CC=C4c5sc(-c6ccc(F)cn6)nc5CC[C@]4(C)[C@H]3CC[C@@]21C,GI50,786-0 renal,1.36 µM
same,TGI,786-0 renal,3.33 µM
same,GI50,A498 renal,2.05 µM
same,TGI,A498 renal,4.06 µM
same,GI50,A549 NSCLC,3.44 µM
same,TGI,A549 NSCLC,15.1 µM
same,GI50,ACHN renal,3.43 µM
same,TGI,ACHN renal,14 µM
same,GI50,BT-549 breast,1.77 µM
same,TGI,BT-549 breast,5.02 µM
same,GI50,CAKI-1 renal,2.12 µM
same,TGI,CAKI-1 renal,6.27 µM
same,GI50,CCRF-CEM leukemia,2.71 µM
same,TGI,CCRF-CEM leukemia,33.5 µM
same,GI50,COLO 205 colon,2.62 µM
same,TGI,COLO 205 colon,11.1 µM
same,GI50,DU-145 prostate,4.62 µM
same,TGI,DU-145 prostate,18.9 µM
same,GI50,EKVX NSCLC,2.89 µM
same,TGI,EKVX NSCLC,12.9 µM
same,GI50,HCC-2998 colon,5.16 µM
same,TGI,HCC-2998 colon,17.8 µM
same,GI50,HCT-116 colon,1.8 µM
same,TGI,HCT-116 colon,4.3 µM
same,GI50,HCT-15 colon,1.89 µM
same,TGI,HCT-15 colon,5.11 µM
same,GI50,HL-60(TB) leukemia,2.77 µM
same,TGI,HL-60(TB) leukemia,10.9 µM
same,GI50,HOP-62 NSCLC,2.28 µM
same,TGI,HOP-62 NSCLC,7.25 µM
same,GI50,HOP-92 NSCLC,2.02 µM
same,TGI,HOP-92 NSCLC,6.83 µM
same,GI50,HS 578T breast,1.45 µM
same,TGI,HS 578T breast,5.26 µM
same,GI50,HT29 colon,2.02 µM
same,TGI,HT29 colon,4.6 µM
same,GI50,IGROV1 ovarian,4.96 µM
same,TGI,IGROV1 ovarian,20.8 µM
same,GI50,K-562 leukemia,2.49 µM
same,TGI,K-562 leukemia,> 100 µM
same,GI50,KM12 colon,3.26 µM
same,TGI,KM12 colon,20.8 µM
same,GI50,LOX IMVI melanoma,1.82 µM
same,TGI,LOX IMVI melanoma,3.35 µM
same,GI50,M14 melanoma,2.77 µM
same,TGI,M14 melanoma,11.7 µM
same,GI50,MALME-3M melanoma,3.29 µM
same,TGI,MALME-3M melanoma,11.7 µM
same,GI50,MCF7 breast,1.5 µM
same,TGI,MCF7 breast,3.38 µM
same,GI50,MDA-MB-231 breast,2.4 µM
same,TGI,MDA-MB-231 breast,7.14 µM
same,GI50,MDA-MB-435,2.28 µM
same,TGI,MDA-MB-435,6.84 µM
same,GI50,MOLT-4 leukemia,2.01 µM
same,TGI,MOLT-4 leukemia,8.06 µM
same,GI50,NCI-H226 lung,2.93 µM
same,TGI,NCI-H226 lung,13.1 µM
same,GI50,NCI-H460 lung,3.03 µM
same,TGI,NCI-H460 lung,12.5 µM
same,GI50,NCI-H522 lung,2.06 µM
same,TGI,NCI-H522 lung,5.78 µM
same,GI50,NCI/ADR-RES ovarian,4.12 µM
same,TGI,NCI/ADR-RES ovarian,23.6 µM
same,GI50,OVCAR-3 ovarian,3.86 µM
same,TGI,OVCAR-3 ovarian,72.4 µM
same,GI50,OVCAR-4 ovarian,4.41 µM
same,TGI,OVCAR-4 ovarian,18.5 µM
same,GI50,OVCAR-5 ovarian,4.01 µM
same,TGI,OVCAR-5 ovarian,14.8 µM
same,GI50,OVCAR-8 ovarian,3.16 µM
same,TGI,OVCAR-8 ovarian,14.3 µM
same,GI50,PC-3 prostate,1.73 µM
same,TGI,PC-3 prostate,7.64 µM
same,GI50,RPMI-8226 leukemia,0.365 µM
same,TGI,RPMI-8226 leukemia,1.72 µM
same,GI50,RXF 393 renal,0.309 µM
same,TGI,RXF 393 renal,0.956 µM
same,GI50,SF-268 CNS,3.46 µM
same,TGI,SF-268 CNS,18.4 µM
same,GI50,SF-295 CNS,1.24 µM
same,TGI,SF-295 CNS,2.96 µM
same,GI50,SF-539 CNS,1.23 µM
same,TGI,SF-539 CNS,2.88 µM
same,GI50,SK-MEL-2 melanoma,2.33 µM
same,TGI,SK-MEL-2 melanoma,6.58 µM
same,GI50,SK-MEL-28 melanoma,1.64 µM
same,TGI,SK-MEL-28 melanoma,3.88 µM
same,GI50,SK-MEL-5 melanoma,2.62 µM
same,TGI,SK-MEL-5 melanoma,7.23 µM
same,GI50,SK-OV-3 ovarian,2.29 µM
same,TGI,SK-OV-3 ovarian,5.64 µM
same,GI50,SN12C renal,4.54 µM
same,TGI,SN12C renal,17.5 µM
same,GI50,SNB-19 CNS,2.72 µM
same,TGI,SNB-19 CNS,12.7 µM
same,GI50,SNB-75 CNS,2.45 µM
same,TGI,SNB-75 CNS,15 µM
same,GI50,SR leukemia,2.21 µM
same,TGI,SR leukemia,8.39 µM
same,GI50,SW-620 colon,2.62 µM
same,TGI,SW-620 colon,8.01 µM
same,GI50,T-47D breast,3.43 µM
same,TGI,T-47D breast,16.1 µM
same,GI50,TK-10 renal,5.31 µM
same,TGI,TK-10 renal,17.3 µM
same,GI50,U251 CNS,1.68 µM
same,TGI,U251 CNS,7.05 µM
same,GI50,UACC-257 melanoma,2.25 µM
same,TGI,UACC-257 melanoma,6.73 µM
same,GI50,UACC-62 melanoma,2.65 µM
same,TGI,UACC-62 melanoma,8.53 µM
same,GI50,UO-31 renal,2.32 µM
same,TGI,UO-31 renal,5.62 µM

# Source: PubChem BioAssay (NCI)
